Data from article PMC6934184, “Selective DNA-PKcs inhibition extends the therapeutic index of localized radiotherapy and chemotherapy” (The Journal of Clinical Investigation, 2019).

Molecular target: T1, CDK11 (Inactive) (Homo sapiens, UniProt Q9BWU1)
T1 construct: purchased Thermo Fisher Scientific (Life Technologies) SelectScreen
Test: SelectScreen LanthaScreen
Assay type: binding
Conditions: 1 µM
Procedure, shortened: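 NU5455 was profiled across the SelectScreen Broad panel of kinase activity and binding assays. Z'LYTE reactions such as CSF1R ran at apparent Km ATP, while the Adapta CAMK1 assay used ATP listed as 10. Values are given as percent.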

T1 sequence (Q9BWU1 whole entry): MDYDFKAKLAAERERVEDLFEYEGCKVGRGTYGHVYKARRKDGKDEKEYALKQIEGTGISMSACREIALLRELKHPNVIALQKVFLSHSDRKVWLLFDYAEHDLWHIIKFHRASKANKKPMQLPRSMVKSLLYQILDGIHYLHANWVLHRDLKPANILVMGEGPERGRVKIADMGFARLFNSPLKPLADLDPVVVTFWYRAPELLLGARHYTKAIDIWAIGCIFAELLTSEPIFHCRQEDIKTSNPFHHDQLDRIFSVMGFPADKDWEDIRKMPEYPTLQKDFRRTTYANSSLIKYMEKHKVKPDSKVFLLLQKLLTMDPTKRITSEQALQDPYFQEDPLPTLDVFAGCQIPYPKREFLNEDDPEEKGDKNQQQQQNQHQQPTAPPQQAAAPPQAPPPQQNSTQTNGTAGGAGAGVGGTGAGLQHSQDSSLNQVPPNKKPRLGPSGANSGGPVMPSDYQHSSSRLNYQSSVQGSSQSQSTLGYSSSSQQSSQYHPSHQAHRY

SMILES: CN(C(=O)CN1CCOCC1)c1ccc2sc3c(-c4cccc5c(=O)cc(N6CC7CCC(C6)O7)oc45)cccc3c2c1 [NU5455]
- % displacement: 1.7%
